From PubChem BioAssay AID1918946 (Molecular Pharmacology Branch, DTP, NCI, 2023)
Several values for one entry are separate records, joined by “and”; a condition that tells them apart may be missing. Identical values can stand only once.

System: 885512-296-R-J2-PDC complex spheroid viability
Experiment: Anticancer human tumor 885512-296-R-J2-PDC patient-derived breast carcinoma cell line growth inhibition
Settings: for viability, T/C: stronger effect = lower value
Procedure, shortened: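 Drug combinations with the LSD1 inhibitor iadademstat tested on tumor cells co-cultured as spheroids with endothelial cells and mesenchymal stem cells. Concentrations descended in half-log increments from clinical Cmax or 10 microM.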

[1] = curve of first compound, second compound 0.1 µM
[2] = curve of first compound, second compound 0.316 µM
[3] = curve of first compound, second compound 1 µM
[4] = curve of first compound, second compound 3.16 µM
[5] = curve of first compound, second compound 10 µM
[6] = second compound 0.1 µM, first compound 0.00949 µM
[7] = second compound 0.1 µM, first compound 0.03 µM
[8] = second compound 0.1 µM, first compound 0.0949 µM
[9] = second compound 0.1 µM, first compound 0.3 µM
[10] = second compound 0.316 µM, first compound 0.00949 µM
[11] = second compound 0.316 µM, first compound 0.03 µM
[12] = second compound 0.316 µM, first compound 0.0949 µM
[13] = second compound 0.316 µM, first compound 0.3 µM
[14] = second compound 1 µM, first compound 0.00949 µM
[15] = second compound 1 µM, first compound 0.03 µM
[16] = second compound 1 µM, first compound 0.0949 µM
[17] = second compound 1 µM, first compound 0.3 µM
[18] = second compound 3.16 µM, first compound 0.00949 µM
[19] = second compound 3.16 µM, first compound 0.03 µM
[20] = second compound 3.16 µM, first compound 0.0949 µM
[21] = second compound 3.16 µM, first compound 0.3 µM
[22] = second compound 10 µM, first compound 0.00949 µM
[23] = second compound 10 µM, first compound 0.03 µM
[24] = second compound 10 µM, first compound 0.0949 µM
[25] = second compound 10 µM, first compound 0.3 µM
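Also: spheroids exposed to agents for 7 days before viability read.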

With `Nc1ncn(C2CC(O)C(CO)S2)c(=O)n1` (configuration not stated) + NC1CC1c1ccc(-c2cccc(O)c2)cc1 the IC50 [1] was 4.6 nM, the IC50 [2] was 4.26 nM and the IC50 [3] was 4.39 nM. For the same compound, the IC50 [4] was 2.81 nM, the IC50 [5] was 0.989 nM and the viability, T/C (second compound 0.1 µM, first compound 0.000949 µM) was 91.2%. It also gave a viability, T/C (second compound 0.1 µM, first compound 0.003 µM) of 62%, a viability, T/C [6] of 29.4% and a viability, T/C [7] of 15.9%. The viability, T/C [8] was 8.39%, the viability, T/C [9] was 4.32% and the viability, T/C (second compound 0.316 µM, first compound 0.000949 µM) was 84.1%. It also gave a viability, T/C (second compound 0.316 µM, first compound 0.003 µM) of 60.6%, a viability, T/C [10] of 26.1% and a viability, T/C [11] of 14.8%. It also gave a viability, T/C [12] of 8.48%, a viability, T/C [13] of 4.51% and a viability, T/C (second compound 1 µM, first compound 0.000949 µM) of 75%. It also gave a viability, T/C (second compound 1 µM, first compound 0.003 µM) of 60.4%, a viability, T/C [14] of 29.5% and a viability, T/C [15] of 13.8%. The viability, T/C [16] was 7.96%, the viability, T/C [17] was 4.21% and the viability, T/C (second compound 3.16 µM, first compound 0.000949 µM) was 61.6%. For the same compound, the viability, T/C (second compound 3.16 µM, first compound 0.003 µM) was 50.2%, the viability, T/C [18] was 25.9% and the viability, T/C [19] was 12.9%. For the same compound, the viability, T/C [20] was 6.26%, the viability, T/C [21] was 4.09% and the viability, T/C (second compound 10 µM, first compound 0.000949 µM) was 50.1%. It also gave a viability, T/C (second compound 10 µM, first compound 0.003 µM) of 39.8%, a viability, T/C [22] of 17.2% and a viability, T/C [23] of 9.45%. It also gave a viability, T/C [24] of 5.85% and a viability, T/C [25] of 3.58%.

In the case of `CC(C)CC(NC(=O)CNC(=O)c1cc(Cl)ccc1Cl)B1OC(=O)CC(CC(=O)O)(C(=O)O)O1` (configuration not stated) + NC1CC1c1ccc(-c2cccc(O)c2)cc1, the IC50 [1] is reported as 4.92 nM, the IC50 [2] is reported as 5.16 nM and the IC50 [3] is reported as 5.08 nM. The IC50 [4] was 4.23 nM, the IC50 [5] was 3.35 nM and the viability, T/C (second compound 0.1 µM, first compound 0.000316 µM) was 125%. For the same compound, the viability, T/C (second compound 0.1 µM, first compound 0.001 µM) was 126%, the viability, T/C (second compound 0.1 µM, first compound 0.00316 µM) was 75% and the viability, T/C (second compound 0.1 µM, first compound 0.01 µM) was 10.1%. The viability, T/C (second compound 0.1 µM, first compound 0.0316 µM) was 1.77%, the viability, T/C (second compound 0.1 µM, first compound 0.1 µM) was 0.48% and the viability, T/C (second compound 0.316 µM, first compound 0.000316 µM) was 130%. For the same compound, the viability, T/C (second compound 0.316 µM, first compound 0.001 µM) was 113%, the viability, T/C (second compound 0.316 µM, first compound 0.00316 µM) was 79.6% and the viability, T/C (second compound 0.316 µM, first compound 0.01 µM) was 10.3%. For the same compound, the viability, T/C (second compound 0.316 µM, first compound 0.0316 µM) was 2.04%, the viability, T/C (second compound 0.316 µM, first compound 0.1 µM) was 0.45% and the viability, T/C (second compound 1 µM, first compound 0.000316 µM) was 132%. The viability, T/C (second compound 1 µM, first compound 0.001 µM) was 116%, the viability, T/C (second compound 1 µM, first compound 0.00316 µM) was 78.6% and the viability, T/C (second compound 1 µM, first compound 0.01 µM) was 9.38%. For the same compound, the viability, T/C (second compound 1 µM, first compound 0.0316 µM) was 1.61%, the viability, T/C (second compound 1 µM, first compound 0.1 µM) was 0.42% and the viability, T/C (second compound 3.16 µM, first compound 0.000316 µM) was 121%. For the same compound, the viability, T/C (second compound 3.16 µM, first compound 0.001 µM) was 103%, the viability, T/C (second compound 3.16 µM, first compound 0.00316 µM) was 65.7% and the viability, T/C (second compound 3.16 µM, first compound 0.01 µM) was 8.61%. For the same compound, the viability, T/C (second compound 3.16 µM, first compound 0.0316 µM) was 1.75%, the viability, T/C (second compound 3.16 µM, first compound 0.1 µM) was 0.31% and the viability, T/C (second compound 10 µM, first compound 0.000316 µM) was 82.8%. It also gave a viability, T/C (second compound 10 µM, first compound 0.001 µM) of 87.5%, a viability, T/C (second compound 10 µM, first compound 0.00316 µM) of 52% and a viability, T/C (second compound 10 µM, first compound 0.01 µM) of 5.61%. It also gave a viability, T/C (second compound 10 µM, first compound 0.0316 µM) of 1.05% and a viability, T/C (second compound 10 µM, first compound 0.1 µM) of 0.22%.

In the case of `Nc1ccn(C2OC(CO)C(O)C2(F)F)c(=O)n1` (configuration not stated), the viability, T/C (compound 0.000949 µM) is reported as 5.28% and 20.8%, the viability, T/C (compound 0.003 µM) is reported as 8.05% and 3% and the viability, T/C (compound 0.00949 µM) is reported as 5.82% and 2.16%. The viability, T/C (compound 0.03 µM) was 8.91% and 2.45%, the viability, T/C (compound 0.0949 µM) was 10.2% and 2.79% and the viability, T/C (compound 0.3 µM) was 8.07% and 3.31%. For the same compound, the IC50 (curve of compound) was under 0.949 nM.

`NS(=O)(=O)OCC1CC(n2ccc3c(NC4CCc5ccccc54)ncnc32)CC1O` (configuration not stated) + NC1CC1c1ccc(-c2cccc(O)c2)cc1 showed an IC50 [1] of under 9.49 nM, an IC50 [2] of under 9.49 nM and an IC50 [3] of under 9.49 nM. The IC50 [4] was under 9.49 nM, the IC50 [5] was under 9.49 nM and the viability, T/C [6] was 15.9%. It also gave a viability, T/C [7] of 6.61%, a viability, T/C [8] of 2.38% and a viability, T/C [9] of 1.74%. For the same compound, the viability, T/C (second compound 0.1 µM, first compound 0.949 µM) was 1.42%, the viability, T/C (second compound 0.1 µM, first compound 3 µM) was 1.17% and the viability, T/C [10] was 13.4%. For the same compound, the viability, T/C [11] was 5.58%, the viability, T/C [12] was 2.27% and the viability, T/C [13] was 1.48%. For the same compound, the viability, T/C (second compound 0.316 µM, first compound 0.949 µM) was 1.54%, the viability, T/C (second compound 0.316 µM, first compound 3 µM) was 1.19% and the viability, T/C [14] was 11.8%. For the same compound, the viability, T/C [15] was 5.8%, the viability, T/C [16] was 2.84% and the viability, T/C [17] was 1.53%. It also gave a viability, T/C (second compound 1 µM, first compound 0.949 µM) of 1.65%, a viability, T/C (second compound 1 µM, first compound 3 µM) of 1.49% and a viability, T/C [18] of 10.9%. It also gave a viability, T/C [19] of 4.37%, a viability, T/C [20] of 2.28% and a viability, T/C [21] of 1.46%. For the same compound, the viability, T/C (second compound 3.16 µM, first compound 0.949 µM) was 1.66%, the viability, T/C (second compound 3.16 µM, first compound 3 µM) was 1.1% and the viability, T/C [22] was 8.81%. It also gave a viability, T/C [23] of 4.76%, a viability, T/C [24] of 1.87% and a viability, T/C [25] of 1.89%. It also gave a viability, T/C (second compound 10 µM, first compound 0.949 µM) of 0.97% and a viability, T/C (second compound 10 µM, first compound 3 µM) of 0.66%.
